{"source": "patent US20250302808A1", "about": "“DEXMEDETOMIDINE TREATMENT REGIMENS” (BioXcel Therapeutics, Inc., priority 2021, published 2025)", "key": {"[1]": {"system": "subjects undergoing opioid withdrawal", "conditions": "Fishman et al. 2019, cited from earlier work"}, "[2]": {"protocol": "Blood samples (4 ml) were collected for pharmacokinetic analysis on inpatient Study Days 6 and 12 at 0, 2, 6, and 12 hours after the first dose of dexmedetomidine hydrochloride oromucosal film on Study Days 6 and 12.\nPlasma concentration data for dexmedetomidine were analyzed by a popPK approach and reported separately. The plasma concentration data from this study were combined with PK data from other studies to develop the population PK model. The model was used to estimate exposure measures in subjects in this study through a modeling and simulation approach. • Interim data: The demographic data and baseline characteristics are given in Table 15C."}, "[3]": {"protocol": "This was an adaptive Phase Ib/2 trial design. It was a randomized, double-blind, placebo-controlled, multiple ascending dose study assessing efficacy, pharmacokinetics, safety and tolerability of dexmedetomidine hydrochloride dosing in adult (65 years old and older) males and females with acute agitation associated with dementia.\nThe drug film was retained in the sublingual cavity until dissolved. Participants were also evaluated for local irritation around the area where the film was placed. Efficacy and safety assessments were conducted periodically before and after dosing. The next cohort was dosed after completing accrual of most prior panels, in accord with regular ongoing periodic safety and PK review as eligible subjects were assigned, dosed, and data became available.\nBlood samples (4 mL) were collected at 0.5, 1, 2, 4, 8- and 24-hours post-dose per Schedule of Events (Table 9A).\nAll pharmacokinetic parameters were calculated using non-compartmental analysis using WinNonlin. Actual sampling times were used in all pharmacokinetic analyses. […] Other PK analyses might be performed as appropriate.\nPlasma samples were collected at 0.5, 1, 2, (2.5 in re-dose subjects), 4 and 8 hr.", "remark": "listed apart in the source"}, "[4]": {"system": "opioid withdrawal symptoms", "protocol": "(§1) • COWS and SOWS scores during Days 6-12. COWS and SOWS scores on Days 6-12 were analyzed using a mixed-effects, repeated-measures model. […] Kaplan-Meier estimates were used to generate survival curves for each treatment group. […] Differences in mean agitation and sedation were compared between the treatment groups using the same mixed-effects, repeated-measures model described above."}, "[5]": {"system": "elderly dementia patients", "quoted_text": "AEs, clinical laboratory tests, 12-lead ECG, Johns Hopkins Fall Risk Assessment score, and vital signs were monitored, and all observed and volunteered AEs were recorded. Blood pressure, heart rate and ECG were completed per schedule of assessments. Any abnormal clinically significant (investigator determined) vital sign measurement, clinical laboratory test, physical examination finding, or ECG parameter were repeated, until the value returned to baseline (or within normal limits) or the investigator deemed the abnormality to be of no clinical significance. Orthostatic assessments followed the CDC guidelines for the elderly (e.g. blood pressure upon standing for 1, 3 and 5 minutes). Safety and tolerability assessments were continued until the morning of Day 2 and Day 3 and were repeated on Day 7=2 days.\nSafety was assessed during the study by the monitoring and recording of AEs, clinical laboratory test results (hematology, biochemistry, and urinalysis), vital sign measurements (systolic and diastolic blood pressures, heart rate measured as pulse, respiratory rate, and temperature), ECG, and physical examination findings.\nAdverse events (AEs) were characterized by type, severity, seriousness, and relationship to treatment. Adverse events were coded by preferred term and system organ class using MedDRA version 20.0."}, "opioid withdrawal": {"system": "opioid withdrawal", "protocol": "as §1\nKaplan-Meier estimates were also used to generate survival curves over time in each treatment group. Logistic regression model was used to compare the dexmedetomidine hydrochloride oromucosal film and placebo groups on the numbers of subjects dropping out after opioid discontinuation."}}, "note": "Where two headings read alike, the source gives them in different places."}
{"smiles": "CC(Oc1c(Cl)cccc1Cl)C1=NCCN1", "note": "(stereo not drawn) [lofexidine]", "values": [{"measurement": "Adverse Event Bradycardia", "setting": "[1]; 2.16 mg (N = 229)", "value": "54 (24) n (%)"}, {"measurement": "Adverse Event Dizziness", "setting": "[1]; 2.16 mg (N = 229)", "value": "44 (19) n (%)"}, {"measurement": "Adverse Event Orthostatic hypotension", "setting": "[1]; 2.16 mg (N = 229)", "value": "67 (29) n (%)"}, {"measurement": "Adverse Event Somnolence", "setting": "[1]; 2.16 mg (N = 229)", "value": "25 (10.9) n (%)"}, {"measurement": "Adverse Event Bradycardia", "setting": "[1]; 2.88 mg (N = 229)", "value": "70 (32) n (%)"}, {"measurement": "Adverse Event Dizziness", "setting": "[1]; 2.88 mg (N = 229)", "value": "51 (23.0) n (%)"}, {"measurement": "Adverse Event Orthostatic hypotension", "setting": "[1]; 2.88 mg (N = 229)", "value": "94 (42) n (%)"}, {"measurement": "Adverse Event Somnolence", "setting": "[1]; 2.88 mg (N = 229)", "value": "29 (13.1) n (%)"}]}
{"smiles": "Cc1cccc([C@H](C)c2cnc[nH]2)c1C", "note": "[dexmedetomidine, (+) 4-(S)-[1-(2,3-dimethylphenyl)ethyl]-1H-imidazole]", "values": [{"measurement": "plasma concentration as dose increased", "setting": "[2]; 30 μg to 240 μg, days 6 and 12", "value": "dose dependent increases"}, {"measurement": "mean plasma concentrations between 2-hour and 12-hour timepoints", "setting": "[2]; all doses", "value": "declined over time"}, {"measurement": "exposure levels in elderly dementia patients vs schizophrenia patients", "setting": "[3]; Table 9E", "value": "higher exposure levels"}, {"measurement": "AUC higher in dementia patients than in schizophrenia (and bipolar disorder) patients", "setting": "[3]; same dose", "value": "about 55%"}, {"measurement": "Cmax higher in dementia patients than in schizophrenia (and bipolar disorder) patients", "setting": "[3]; same dose", "value": "about 38%"}, {"measurement": "subjective rating of insomnia on SOWS scale", "setting": "[4]; Day 7, about 240 μg twice daily", "value": "significant reduction"}, {"measurement": "ratings of anxiety or irritability on COWS scale", "setting": "[4]; Day 8, about 240 μg twice daily", "value": "significant reduction"}, {"measurement": "consequences of doses higher than about 90 μg", "setting": "[5]", "value": "negative consequences"}, {"measurement": "retention rate", "setting": "opioid withdrawal; Day 6, 120 μg dose", "value": "at least 40%"}, {"measurement": "retention rate", "setting": "opioid withdrawal; Day 6, 180 μg dose", "value": "at least 50%"}]}
